In patent US11629143B2, “HipK4 inhibitors and uses thereof” (Vibliome Therapeutics, LLC, priority 2020, dated 2023) one finds inhibition data, which are given here for two compounds.

Molecules are shown by their SMILES.

What all share (assay): Kinase panel (mobility shift)
Assay type in all cases: biochemical

Experiment [1] has as its target T1, MER (Homo sapiens, UniProt Q12866).
T1 sequence (Q12866 21-999): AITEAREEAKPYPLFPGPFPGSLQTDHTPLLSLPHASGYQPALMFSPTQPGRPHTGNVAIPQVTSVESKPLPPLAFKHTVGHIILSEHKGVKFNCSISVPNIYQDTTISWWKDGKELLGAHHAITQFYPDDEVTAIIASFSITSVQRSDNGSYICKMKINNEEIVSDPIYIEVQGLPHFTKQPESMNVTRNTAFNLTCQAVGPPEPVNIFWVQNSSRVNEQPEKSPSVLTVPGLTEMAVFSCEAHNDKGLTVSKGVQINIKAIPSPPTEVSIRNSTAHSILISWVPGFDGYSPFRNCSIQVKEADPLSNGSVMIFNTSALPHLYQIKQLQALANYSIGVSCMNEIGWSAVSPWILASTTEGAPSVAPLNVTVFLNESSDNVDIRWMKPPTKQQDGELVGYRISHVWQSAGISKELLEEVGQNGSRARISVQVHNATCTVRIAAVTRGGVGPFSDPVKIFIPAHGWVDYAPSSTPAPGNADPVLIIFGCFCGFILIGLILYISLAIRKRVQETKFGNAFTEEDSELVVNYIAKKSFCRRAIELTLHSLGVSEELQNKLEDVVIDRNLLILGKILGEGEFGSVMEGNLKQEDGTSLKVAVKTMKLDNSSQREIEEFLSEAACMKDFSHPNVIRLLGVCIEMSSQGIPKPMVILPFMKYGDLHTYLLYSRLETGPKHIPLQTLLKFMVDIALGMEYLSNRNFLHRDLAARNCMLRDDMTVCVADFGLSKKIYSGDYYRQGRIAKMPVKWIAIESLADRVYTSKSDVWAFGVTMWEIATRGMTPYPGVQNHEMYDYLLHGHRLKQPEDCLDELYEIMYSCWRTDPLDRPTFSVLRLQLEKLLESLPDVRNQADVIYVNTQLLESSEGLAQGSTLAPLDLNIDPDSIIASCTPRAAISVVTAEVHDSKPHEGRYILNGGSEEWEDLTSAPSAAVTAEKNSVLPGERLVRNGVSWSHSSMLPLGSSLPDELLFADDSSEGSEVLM
The method, boiled down: (§1)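 Microfluidic mobility-shift readout: product and substrate peaks are resolved by charge, and their fluorescence is compared to give enzyme activity. Enzyme, fluorescent substrate and test compound are reacted, then terminated before chip loading. Values are binned at 5 um: A 95% or greater, B 90%-94%, C 80%-89%.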

For experiment [2], the target named is PDGFR-b (Homo sapiens, UniProt P09619). The method, boiled down:
as §1

For experiment [3], the target named is RIPK2 (Homo sapiens, UniProt O43353). The method, boiled down: as §1
RIPK2, sequence (O43353 whole entry, species assumed): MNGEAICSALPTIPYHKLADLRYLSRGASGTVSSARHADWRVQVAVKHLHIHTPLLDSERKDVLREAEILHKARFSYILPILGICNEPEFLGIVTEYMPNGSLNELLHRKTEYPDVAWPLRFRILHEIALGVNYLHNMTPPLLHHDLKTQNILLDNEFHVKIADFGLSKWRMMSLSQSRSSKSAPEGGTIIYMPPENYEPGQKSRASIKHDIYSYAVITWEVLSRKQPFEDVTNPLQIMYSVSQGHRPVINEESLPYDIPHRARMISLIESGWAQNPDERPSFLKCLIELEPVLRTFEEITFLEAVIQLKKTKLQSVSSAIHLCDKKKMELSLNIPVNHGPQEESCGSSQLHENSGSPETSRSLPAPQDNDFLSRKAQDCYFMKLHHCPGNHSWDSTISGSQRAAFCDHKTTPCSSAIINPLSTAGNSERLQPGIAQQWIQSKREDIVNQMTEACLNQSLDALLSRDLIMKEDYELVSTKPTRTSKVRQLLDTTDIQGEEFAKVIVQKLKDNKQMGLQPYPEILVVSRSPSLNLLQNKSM
The target of experiment [4] is SRC (Homo sapiens, UniProt P12931). The method, boiled down:
as §1

The target in experiment [5] is TRKB (Homo sapiens, UniProt Q16620). In a few lines:
as §1

Experiment [6] has as its target T2, TAOK3 (Homo sapiens, UniProt Q9H2K8).
T2 sequence (Q9H2K8 1-898): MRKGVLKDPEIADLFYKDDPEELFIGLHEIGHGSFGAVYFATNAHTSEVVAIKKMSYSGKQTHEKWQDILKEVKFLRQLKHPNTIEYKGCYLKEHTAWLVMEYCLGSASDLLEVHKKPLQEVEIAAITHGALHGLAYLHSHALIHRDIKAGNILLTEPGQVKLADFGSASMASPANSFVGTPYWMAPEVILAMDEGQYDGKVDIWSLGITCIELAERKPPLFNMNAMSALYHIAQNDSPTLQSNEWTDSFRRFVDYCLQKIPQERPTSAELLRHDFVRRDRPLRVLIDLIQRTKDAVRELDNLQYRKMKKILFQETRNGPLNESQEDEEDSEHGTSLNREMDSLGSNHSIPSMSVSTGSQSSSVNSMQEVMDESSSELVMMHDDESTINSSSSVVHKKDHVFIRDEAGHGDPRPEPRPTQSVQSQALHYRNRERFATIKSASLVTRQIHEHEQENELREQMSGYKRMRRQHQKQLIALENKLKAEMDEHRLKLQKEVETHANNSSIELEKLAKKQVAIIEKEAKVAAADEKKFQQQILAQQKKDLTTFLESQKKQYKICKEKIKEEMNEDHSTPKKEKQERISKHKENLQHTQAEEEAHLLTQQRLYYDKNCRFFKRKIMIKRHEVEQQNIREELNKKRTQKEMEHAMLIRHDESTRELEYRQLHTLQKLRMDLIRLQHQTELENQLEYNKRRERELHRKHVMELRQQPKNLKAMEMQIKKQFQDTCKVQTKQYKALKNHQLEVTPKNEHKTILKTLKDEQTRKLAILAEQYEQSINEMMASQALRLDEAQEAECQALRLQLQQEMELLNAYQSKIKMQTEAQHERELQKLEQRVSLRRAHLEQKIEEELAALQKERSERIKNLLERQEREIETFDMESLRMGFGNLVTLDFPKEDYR
The method, boiled down:
as §1

PDGFR-b, sequence (P09619 33-1106, species assumed): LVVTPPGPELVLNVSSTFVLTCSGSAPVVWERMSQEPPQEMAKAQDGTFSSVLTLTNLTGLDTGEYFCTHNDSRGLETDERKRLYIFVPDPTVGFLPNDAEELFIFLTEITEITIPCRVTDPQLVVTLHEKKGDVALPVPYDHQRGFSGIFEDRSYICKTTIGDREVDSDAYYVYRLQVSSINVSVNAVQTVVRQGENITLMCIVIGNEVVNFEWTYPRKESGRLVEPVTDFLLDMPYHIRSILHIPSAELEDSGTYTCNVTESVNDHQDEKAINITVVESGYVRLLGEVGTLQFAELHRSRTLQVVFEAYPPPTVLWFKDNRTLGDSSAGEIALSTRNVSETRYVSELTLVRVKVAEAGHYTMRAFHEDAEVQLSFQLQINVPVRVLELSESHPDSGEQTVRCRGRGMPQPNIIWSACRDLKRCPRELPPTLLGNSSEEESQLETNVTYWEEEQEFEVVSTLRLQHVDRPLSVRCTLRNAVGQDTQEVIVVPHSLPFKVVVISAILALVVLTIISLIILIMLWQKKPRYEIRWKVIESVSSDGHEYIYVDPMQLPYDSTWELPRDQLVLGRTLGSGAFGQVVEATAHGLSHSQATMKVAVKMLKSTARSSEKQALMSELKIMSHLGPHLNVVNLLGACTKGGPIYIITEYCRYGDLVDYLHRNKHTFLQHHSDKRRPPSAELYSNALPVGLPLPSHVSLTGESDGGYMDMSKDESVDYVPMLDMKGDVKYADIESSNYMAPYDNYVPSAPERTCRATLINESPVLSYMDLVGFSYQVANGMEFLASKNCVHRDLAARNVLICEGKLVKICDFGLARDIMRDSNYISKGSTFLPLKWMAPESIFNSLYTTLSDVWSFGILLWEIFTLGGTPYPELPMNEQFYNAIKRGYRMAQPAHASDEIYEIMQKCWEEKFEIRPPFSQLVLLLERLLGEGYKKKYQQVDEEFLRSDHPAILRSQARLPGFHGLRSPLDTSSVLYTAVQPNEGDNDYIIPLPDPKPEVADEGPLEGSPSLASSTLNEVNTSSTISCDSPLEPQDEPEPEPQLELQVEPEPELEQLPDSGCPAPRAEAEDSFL
SRC, sequence (P12931 whole entry, species assumed): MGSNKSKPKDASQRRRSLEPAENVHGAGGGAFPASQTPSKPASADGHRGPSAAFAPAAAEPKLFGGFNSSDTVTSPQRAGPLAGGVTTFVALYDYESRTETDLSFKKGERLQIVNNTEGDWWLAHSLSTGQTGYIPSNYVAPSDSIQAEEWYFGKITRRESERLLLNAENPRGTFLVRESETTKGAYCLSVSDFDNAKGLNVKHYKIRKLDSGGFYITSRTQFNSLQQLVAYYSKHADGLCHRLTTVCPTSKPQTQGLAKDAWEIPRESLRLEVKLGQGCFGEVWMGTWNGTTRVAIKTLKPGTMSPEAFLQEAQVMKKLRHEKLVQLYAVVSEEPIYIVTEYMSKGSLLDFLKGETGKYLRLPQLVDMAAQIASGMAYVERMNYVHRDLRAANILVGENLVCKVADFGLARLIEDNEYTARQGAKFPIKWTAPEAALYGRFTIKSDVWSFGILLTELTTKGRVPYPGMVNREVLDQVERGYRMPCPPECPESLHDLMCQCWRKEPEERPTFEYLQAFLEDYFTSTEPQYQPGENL
TRKB, sequence (Q16620 32-822, species assumed): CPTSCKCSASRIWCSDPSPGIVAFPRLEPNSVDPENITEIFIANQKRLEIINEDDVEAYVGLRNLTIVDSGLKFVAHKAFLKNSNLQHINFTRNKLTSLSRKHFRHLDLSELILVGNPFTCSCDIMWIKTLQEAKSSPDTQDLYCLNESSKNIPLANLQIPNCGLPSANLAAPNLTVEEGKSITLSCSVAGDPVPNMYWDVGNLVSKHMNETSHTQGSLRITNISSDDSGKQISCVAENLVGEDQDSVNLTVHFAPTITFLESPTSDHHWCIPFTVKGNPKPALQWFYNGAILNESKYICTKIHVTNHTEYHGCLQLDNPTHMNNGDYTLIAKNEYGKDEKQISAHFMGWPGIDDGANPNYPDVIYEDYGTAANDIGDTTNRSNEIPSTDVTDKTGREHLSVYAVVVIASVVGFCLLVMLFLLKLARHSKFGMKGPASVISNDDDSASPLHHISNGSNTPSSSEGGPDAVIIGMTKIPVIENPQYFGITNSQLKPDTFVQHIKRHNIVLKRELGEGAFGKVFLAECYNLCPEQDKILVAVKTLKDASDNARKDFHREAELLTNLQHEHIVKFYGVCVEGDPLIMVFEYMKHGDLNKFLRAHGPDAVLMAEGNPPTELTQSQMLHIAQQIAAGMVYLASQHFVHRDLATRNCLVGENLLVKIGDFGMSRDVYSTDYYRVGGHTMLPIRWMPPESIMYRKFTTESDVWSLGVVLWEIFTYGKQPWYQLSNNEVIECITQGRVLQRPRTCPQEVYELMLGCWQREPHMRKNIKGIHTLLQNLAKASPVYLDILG

With `CSc1nc(C(=O)Nc2ccc(Oc3ccnc(C(=O)NC4CCN(C)CC4)c3)c(F)c2)c(-c2ccc(F)cc2)o1` [Compound 42], the inhibition at 5 µM in experiment [1] is under 50%; in experiment [2], under 50%; in experiment [3] it was 50 to 79%; in experiment [4], under 50%; in experiment [5], under 50%; in experiment [6] it was under 50%.
On to `COc1nc(C(=O)Nc2ccc(Oc3ccnc(C(=O)NCC(F)(F)F)c3)c(F)c2)c(-c2ccc(F)cc2)o1` [Compound 43], for which the inhibition at 5 µM in experiment [1], in experiment [2], in experiment [3], in experiment [4], in experiment [5] and in experiment [6] was under 50% throughout.

In general, inhibition refers to the drop in the measured response relative to a control, in per cent.
